# Source: patent publication US20050112573A1, “Method of detecting toxic substance” (priority 2001, published 2005)
# Test system: yeast genes (level of expressed mRNA)
# Experiment: DNA chip analysis of expressed mRNA of yeast genes after 2 h culture with a toxic chemical substance
# Type: cell-based, Saccharomyces cerevisiae S288C
# Method: Yeast (Saccharomyces cerevtisiae S288C (α SUC2mal mel gap2 CUP1)) were cultured at 25° C. on YPD medium (yeast extract 1%, polypepton 2%, glucose 2%). One of toxic chemical substances was added to the cell at logarithmic growth phase, and the cell was further cultured for two hours. Cell was cultured without any chemical substance in the same condition, and was used as control. Concentrations of the chemical substances were defined to inhibit the growth of the yeast but not lead to death.
# After the completion of cultivation, the culture was centrifuged to collect the cells. To the cells, sodium acetate buffer (50 mM sodium acetate, 10 mM EDTA, 1% SDS) was added, and the mixture was shaken at 65° C. for five minutes, followed by returning to room temperature, and obtaining the supernatant, which procedure was repeated two times. To the supernatant, ½ amount of a solution of phenol/chloroform was added, and the mixture was centrifuged to give a supernatant, which was added with an equal amount of chloroform, and the mixture was centrifuged to give a supernatant. To the supernatant, an equal amount of isopropanol containing 0.3 M sodium acetate was added, and the mixture was allowed to stand at room temperature for 30 minutes, after which the mixture was centrifuged to give a sediment of the whole RNAs. Seventy % ethanol was added to the sediment, and the mixture was again centrifuged to give a sediment, which was then dried and dissolved in water. mRNA was isolated from the whole RNAs as followings. In view of the fact that a poly A chain is attached to the 3′ terminus of mRNA, a polynucleotide having a poly T structure which was immobilized on the surface of latex beads was used to trap the mRNA, and then the mRNA was washed and eluted with spine column (Oligotex-dT30<Super>mRNA Purification Kit, Takara). Reverse transcription of the mRNA was conducted with a reverse transcriptase (Super Script II Reverse Transcriptase; catalogue No. 18064-014, GibcoBRL) using fluorescence-labeled nucleotides to give cDNAs that were introduced with Cy3-dUTP or Cy5-dUTP during the reverse transcription.
# The labeled cDNAs were dissolved in TE buffer (10 mM Tris-HCl/1 mM EDTA, pH8.0), and the solution was dropped on the DNA chip containing the whole genes of yeast (DNA Chip Research Inc. Japan) so that the cDNAs were hybridized on the DNA chip at 65° C. for over 12 hours. The fluoresces intensity of the DNA chip was read with a scanner, and the ratio relative to the fluorescence intensity resulting from the absence of chemical substance was estimated as the following, which is shown in Tables 1 to 9: [formula]
# In the Tables, “Intensity” indicated in the rightmost column is a value of the level of expressed mRNA of each gene in control cells as divided by the average level of the expressions of the whole genes.
structure (smiles),measurement,setting,value
"CCCCCCCCCCCCOS(=O)(=O)[O-].[Na+] [(18), sodium lauryl sulfate]",The level of expressed mRNA in the presence of chemical substance/absence: YDR133C,gene YDR133C,0.9
same,The level of expressed mRNA in the presence of chemical substance/absence: YDR140W,gene YDR140W,1.3
same,The level of expressed mRNA in the presence of chemical substance/absence: YDR221W,gene YDR221W,1.0
same,The level of expressed mRNA in the presence of chemical substance/absence: YDR250C,gene YDR250C,0.9
same,The level of expressed mRNA in the presence of chemical substance/absence: YDR271C,gene YDR271C,0.9
same,The level of expressed mRNA in the presence of chemical substance/absence: YDR278C,gene YDR278C,0.8
same,The level of expressed mRNA in the presence of chemical substance/absence: YDR281C,gene YDR281C,1.2
same,The level of expressed mRNA in the presence of chemical substance/absence: YDR316W,gene YDR316W,0.5
same,The level of expressed mRNA in the presence of chemical substance/absence: YDR338C,gene YDR338C,1.0
same,The level of expressed mRNA in the presence of chemical substance/absence: YDR366C,gene YDR366C,0.9
same,level of expressed mRNA in the presence of chemical substance/in its absence,gene YDR380W,0.8
same,level of expressed mRNA in the presence of chemical substance/in its absence,gene YDR410C,1.0
same,The level of expressed mRNA in the presence of chemical substance/absence: YDR421W,gene YDR421W,0.8
same,The level of expressed mRNA in the presence of chemical substance/absence: YDR425W,gene YDR425W,1.2
same,The level of expressed mRNA in the presence of chemical substance/absence: YDR485C,gene YDR485C,1.0
same,level of expressed mRNA in the presence of chemical substance/in its absence,gene YDR487C,1.9
same,level of expressed mRNA in the presence of chemical substance/in its absence,gene YDR502C,0.9
same,The level of expressed mRNA in the presence of chemical substance/absence: YDR504C,gene YDR504C,1.2
same,level of expressed mRNA in the presence of chemical substance/in its absence,gene YEL011W,2.5
same,level of expressed mRNA in the presence of chemical substance/in its absence,gene YEL020C,1.3
same,The level of expressed mRNA in the presence of chemical substance/absence: YEL044W,gene YEL044W,1.0
same,level of expressed mRNA in the presence of chemical substance/in its absence,gene YER026C,3.2
same,level of expressed mRNA in the presence of chemical substance/in its absence,gene YER069W,0.9
same,The level of expressed mRNA in the presence of chemical substance/absence: YER092W,gene YER092W,1.7
same,The level of expressed mRNA in the presence of chemical substance/absence: YER182W,gene YER182W,1.2
same,The level of expressed mRNA in the presence of chemical substance/absence: YFL042C,gene YFL042C,1.2
same,level of expressed mRNA in the presence of chemical substance/in its absence,gene YFR015C,1.2
same,The level of expressed mRNA in the presence of chemical substance/absence: YFR026C,gene YFR026C,1.1
same,The level of expressed mRNA in the presence of chemical substance/absence: YFR056C,gene YFR056C,0.8
same,level of expressed mRNA in the presence of chemical substance/in its absence,gene YGL001C,2.1
same,level of expressed mRNA in the presence of chemical substance/in its absence,gene YGL022W,0.7
same,level of expressed mRNA in the presence of chemical substance/in its absence,gene YGL039W,1.0
same,The level of expressed mRNA in the presence of chemical substance/absence: YGL041C,gene YGL041C,1.1
same,The level of expressed mRNA in the presence of chemical substance/absence: YGL045W,gene YGL045W,1.2
same,The level of expressed mRNA in the presence of chemical substance/absence: YGL057C,gene YGL057C,1.1
same,The level of expressed mRNA in the presence of chemical substance/absence: YGL088W,gene YGL088W,0.7
same,level of expressed mRNA in the presence of chemical substance/in its absence,gene YGL104C,1.3
same,level of expressed mRNA in the presence of chemical substance/in its absence,gene YGL126W,0.9
same,level of expressed mRNA in the presence of chemical substance/in its absence,gene YGL134W,1.3
same,level of expressed mRNA in the presence of chemical substance/in its absence,gene YGL154C,1.1
same,The level of expressed mRNA in the presence of chemical substance/absence: YGL183C,gene YGL183C,1.0
same,level of expressed mRNA in the presence of chemical substance/in its absence,gene YGL209W,1.5
same,The level of expressed mRNA in the presence of chemical substance/absence: YGL223C,gene YGL223C,1.0
same,level of expressed mRNA in the presence of chemical substance/in its absence,gene YGL253W,0.8
same,The level of expressed mRNA in the presence of chemical substance/absence: YGR038W,gene YGR038W,1.1
same,level of expressed mRNA in the presence of chemical substance/in its absence,gene YGR060W,1.6
same,The level of expressed mRNA in the presence of chemical substance/absence: YGR139W,gene YGR139W,0.8
same,The level of expressed mRNA in the presence of chemical substance/absence: YGR156W,gene YGR156W,0.8
same,The level of expressed mRNA in the presence of chemical substance/absence: YGR198W,gene YGR198W,1.0
same,The level of expressed mRNA in the presence of chemical substance/absence: YGR210C,gene YGR210C,0.7
same,The level of expressed mRNA in the presence of chemical substance/absence: YGR211W,gene YGR211W,0.5
same,The level of expressed mRNA in the presence of chemical substance/absence: YGR237C,gene YGR237C,1.0
same,The level of expressed mRNA in the presence of chemical substance/absence: YGR243W,gene YGR243W,4.4
same,The level of expressed mRNA in the presence of chemical substance/absence: YGR250C,gene YGR250C,2.1
same,The level of expressed mRNA in the presence of chemical substance/absence: YGR266W,gene YGR266W,1.0
same,The level of expressed mRNA in the presence of chemical substance/absence: YGR277C,gene YGR277C,1.1
same,level of expressed mRNA in the presence of chemical substance/in its absence,gene YGR282C,1.5
